Values joined by “and” are separate entries in the source; they are usually repeats but may differ in a detail not shown here. Equal entries are not always repeated. Inconclusive results and toxic doses are left out. Rule for the calls: active = survival T/C of 150% or more; inactive = T/C below 125% in these data.
System: P388 leukemia ip, CD2F1 mice, survival T/C
Test: NCI In Vivo Anticancer Drug Screen. Data for tumor model P388 Leukemia (intraperitoneal) in CD2F1 (CDF1) mice
Conditions: endpoint: median survival time, higher = longer survival
In short: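 Mice carrying the transplanted tumor received test compound or vehicle. Survival was recorded in each group, and the value is the treated-group measurement divided by that of the vehicle-treated control group.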

[1] = dose: 50.0 mg/kg/injection, schedule: Q01DX009 (ip), vehicle: saline with Tween-80
[2] = dose: 100.0 mg/kg/injection, schedule: Q04DX003 (ip), vehicle: saline with Tween-80
[3] = dose: 10.0 mg/kg/injection, schedule: Q01DX009 (ip), vehicle: saline with Tween-80

Measured: T/C

Cc1nn(CCO)c(=O)c(C#N)c1C
inactive: dose: 25.0 mg/kg/injection, schedule: Q04DX002 (ip), vehicle: distilled water + Tween-80 103 % of control | dose: 50.0 mg/kg/injection, schedule: Q04DX002 (ip), vehicle: distilled water + Tween-80 108 % of control | dose: 100.0 mg/kg/injection, schedule: Q04DX002 (ip), vehicle: distilled water + Tween-80 101 % of control | dose: 200.0 mg/kg/injection, schedule: Q04DX002 (ip), vehicle: distilled water + Tween-80 94 % of control

C[Si](C)(C[P+](=O)[O][Sn]([CH3])([CH3])[O][P+](=O)C[Si](C)(C)c1ccccc1)c1ccccc1 (stereo not given)
inactive: dose: 3.75 mg/kg/injection, schedule: Q01DX005 (ip), vehicle: saline with Tween-80 100 % of control | dose: 7.5 mg/kg/injection, schedule: Q01DX005 (ip), vehicle: saline with Tween-80 93 % of control

CCOP(=S)(N1CC1C)N1CC1C (stereo not given)
inactive: [1] 120 % of control | dose: 66.0 mg/kg/injection, schedule: Q04DX003 (ip), vehicle: saline with Tween-80 100 % of control | [2] 109 % of control

CCN(CC)CCNc1ccc(C)c2sc3c(OC)cccc3c(=O)c12
inactive: [1] 113 % of control | dose: 100.0 mg/kg/injection, schedule: Q01DX009 (ip), vehicle: saline with Tween-80 100 % of control | dose: 200.0 mg/kg/injection, schedule: Q01DX009 (ip), vehicle: saline with Tween-80 116 % of control

CC(C)=CCC(OC(=O)C=C(C)C)C1=CC(=O)c2c(O)ccc(O)c2C1=O (stereo not given)
inactive: dose: 1.56 mg/kg/injection, schedule: Q01DX009 (ip), vehicle: water 108 % of control | dose: 3.12 mg/kg/injection, schedule: Q01DX009 (ip), vehicle: water 107 % of control | dose: 6.25 mg/kg/injection, schedule: Q01DX009 (ip), vehicle: water 117 % of control | [3] 110 % of control | dose: 10.0 mg/kg/injection, schedule: Q04DX003 (ip), vehicle: saline with Tween-80 109 % of control | dose: 12.5 mg/kg/injection, schedule: Q01DX009 (ip), vehicle: water 119 % of control | dose: 20.0 mg/kg/injection, schedule: Q01DX009 (ip), vehicle: saline with Tween-80 110 % of control | dose: 20.0 mg/kg/injection, schedule: Q04DX003 (ip), vehicle: saline with Tween-80 90 % of control | dose: 40.0 mg/kg/injection, schedule: Q04DX003 (ip), vehicle: saline with Tween-80 104 % of control

CC(=O)NCCCCCCNC(C)=O
inactive: dose: 25.0 mg/kg/injection, schedule: Q01DX009 (ip), vehicle: saline 100 % of control and 111 % of control and 97 % of control | dose: 31.0 mg/kg/injection, schedule: Q03HX008 (ip), vehicle: saline 101 % of control | dose: 41.7 mg/kg/injection, schedule: Q03HX024 (ip), vehicle: saline 105 % of control | dose: 50.0 mg/kg/injection, schedule: Q01DX009 (ip), vehicle: saline 100 % of control and 103 % of control and 119 % of control | dose: 62.5 mg/kg/injection, schedule: Q03HX008 (ip), vehicle: saline 103 % of control | dose: 83.0 mg/kg/injection, schedule: Q03HX024 (ip), vehicle: saline 107 % of control | dose: 100.0 mg/kg/injection, schedule: Q01DX009 (ip), vehicle: saline 103 % of control and 104 % of control | dose: 125.0 mg/kg/injection, schedule: Q03HX008 (ip), vehicle: saline 103 % of control | dose: 166.7 mg/kg/injection, schedule: Q03HX024 (ip), vehicle: saline 110 % of control | dose: 200.0 mg/kg/injection, schedule: Q01DX009 (ip), vehicle: saline 100 % of control and 105 % of control and 117 % of control | dose: 250.0 mg/kg/injection, schedule: Q01DX001 (ip), vehicle: saline 99 % of control | dose: 250.0 mg/kg/injection, schedule: Q03HX008 (ip), vehicle: saline 106 % of control | dose: 333.0 mg/kg/injection, schedule: Q03HX024 (ip), vehicle: saline 110 % of control | dose: 333.0 mg/kg/injection, schedule: Q04DX003 (ip), vehicle: saline 101 % of control | dose: 400.0 mg/kg/injection, schedule: Q01DX009 (ip), vehicle: saline 100 % of control and 105 % of control and 111 % of control | dose: 500.0 mg/kg/injection, schedule: Q01DX001 (ip), vehicle: saline 99 % of control | dose: 500.0 mg/kg/injection, schedule: Q03HX008 (ip), vehicle: saline 113 % of control | dose: 500.0 mg/kg/injection, schedule: Q03HX024 (ip), vehicle: saline 111 % of control | dose: 666.7 mg/kg/injection, schedule: Q04DX003 (ip), vehicle: saline 108 % of control | dose: 800.0 mg/kg/injection, schedule: Q01DX009 (ip), vehicle: saline 101 % of control and 108 % of control and 114 % of control | dose: 1000.0 mg/kg/injection, schedule: Q01DX001 (ip), vehicle: saline 101 % of control | dose: 1000.0 mg/kg/injection, schedule: Q03HX008 (ip), vehicle: saline 107 % of control | dose: 1333.0 mg/kg/injection, schedule: Q04DX003 (ip), vehicle: saline 106 % of control | dose: 2000.0 mg/kg/injection, schedule: Q01DX001 (ip), vehicle: saline 103 % of control | dose: 2666.0 mg/kg/injection, schedule: Q04DX003 (ip), vehicle: saline 105 % of control

Cn1c2c(c(=O)c3c4c(=O)c5c([nH]c4ccc31)CCCC5)CCCC2
inactive: [2] 100 % of control | dose: 200.0 mg/kg/injection, schedule: Q04DX003 (ip), vehicle: saline with Tween-80 94 % of control | dose: 400.0 mg/kg/injection, schedule: Q04DX003 (ip), vehicle: saline with Tween-80 86 % of control

CSc1n[nH]c(-c2cccs2)n1
inactive: dose: 60.0 mg/kg/injection, schedule: Q01DX005 (ip), vehicle: Klucel (hydroxypropylcellulose) (HPC) 104 % of control | dose: 120.0 mg/kg/injection, schedule: Q01DX005 (ip), vehicle: Klucel (hydroxypropylcellulose) (HPC) 105 % of control

O=[N+]([O-])c1cc(S(=O)(=O)O)cc([N+](=O)[O-])c1Cl
inactive: dose: 25.0 mg/kg/injection, schedule: Q01DX009 (ip), vehicle: Klucel (hydroxypropylcellulose) (HPC) 116 % of control | dose: 50.0 mg/kg/injection, schedule: Q01DX009 (ip), vehicle: Klucel (hydroxypropylcellulose) (HPC) 114 % of control | dose: 100.0 mg/kg/injection, schedule: Q01DX009 (ip), vehicle: Klucel (hydroxypropylcellulose) (HPC) 119 % of control

COC(=O)c1ccc(N(C)CC/C(CN)=N/NC(N)=O)cc1
inactive: dose: 50.0 mg/kg/injection, schedule: Q01DX005 (ip), vehicle: saline with Tween-80 99 % of control | dose: 100.0 mg/kg/injection, schedule: Q01DX005 (ip), vehicle: saline with Tween-80 91 % of control | dose: 200.0 mg/kg/injection, schedule: Q01DX005 (ip), vehicle: saline with Tween-80 87 % of control

O=C1CC2NC(=O)C(CCCCN1)NC2=O (stereo not given)
inactive: dose: 1.5 mg/kg/injection, schedule: Q01DX009 (ip), vehicle: Klucel (hydroxypropylcellulose) (HPC) 100 % of control | dose: 3.0 mg/kg/injection, schedule: Q01DX009 (ip), vehicle: Klucel (hydroxypropylcellulose) (HPC) 99 % of control | dose: 6.0 mg/kg/injection, schedule: Q01DX009 (ip), vehicle: Klucel (hydroxypropylcellulose) (HPC) 97 % of control | dose: 12.0 mg/kg/injection, schedule: Q01DX009 (ip), vehicle: Klucel (hydroxypropylcellulose) (HPC) 109 % of control

COC1=CC(=O)C(O)=C/C1=C\C=C\c1ccccc1
inactive: dose: 2.5 mg/kg/injection, schedule: Q01DX009 (ip), vehicle: saline with Tween-80 107 % of control | dose: 5.0 mg/kg/injection, schedule: Q01DX009 (ip), vehicle: saline with Tween-80 104 % of control | [3] 110 % of control

O=C(O)C(Cc1cnc[nH]1)[N-]C[N-]C(Cc1cnc[nH]1)C(=O)O.[Pd+2] (stereo not given)
inactive: dose: 50.0 mg/kg/injection, schedule: Q01DX005 (ip), vehicle: saline 100 % of control | dose: 100.0 mg/kg/injection, schedule: Q01DX005 (ip), vehicle: saline 97 % of control | dose: 200.0 mg/kg/injection, schedule: Q01DX005 (ip), vehicle: saline 100 % of control

ClC(Cl)=[C](Cl)[Hg][C](Cl)=C(Cl)Cl
inactive: dose: 3.13 mg/kg/injection, schedule: Q01DX009 (ip), vehicle: Klucel (hydroxypropylcellulose) (HPC) 105 % of control | dose: 6.25 mg/kg/injection, schedule: Q01DX009 (ip), vehicle: Klucel (hydroxypropylcellulose) (HPC) 100 % of control | dose: 12.5 mg/kg/injection, schedule: Q01DX009 (ip), vehicle: Klucel (hydroxypropylcellulose) (HPC) 97 % of control

Source: PubChem BioAssay AID330 (DTP/NCI, 2004)
